From ChEMBL document CHEMBL1156829 (Proc Natl Acad Sci U S A, 2008)

Key:
[1] = NOVARTIS: Cytotoxicity against human hepatocellular carcinoma cell line (Huh7); assay type: toxicity, cell-based, Huh-7; details: Huh7 cells (hepatocellular carcinoma cell line)
Plasmodium falciparum [2] = assay: NOVARTIS: Inhibition of Plasmodium falciparum W2 (drug-resistant) proliferation in erythrocyte-based infection assay; assay type: functional, organism-based; details: Plasmodium falciparum, W2; read-out: EC50
Plasmodium falciparum [3] = assay: NOVARTIS: Inhibition of Plasmodium falciparum 3D7 (drug-susceptible) proliferation in erythrocyte-based infection assay; assay type: functional, organism-based; details: Plasmodium falciparum, 3D7

SMILES | CC50 [1] [nM] | EC50 (Plasmodium falciparum [2]) [nM] | EC50 (Plasmodium falciparum [3]) [nM]
N#CC1=C(N)Oc2c3c(c4ccccc4c2C1c1ccc(F)cc1)C(c1ccc(F)cc1)C(C#N)=C(N)O3 (stereo not drawn) | 21600 | 2440 | 4090
CCOc1ccc(-c2cn3c([n+]2Cc2ccccc2)SCCC3)cc1 | > 10000 | 1090 | 648
COc1cc2nc(N3CCN(c4nc(N)c5cc(OC)c(OC)cc5n4)CC3)nc(N)c2cc1OC | 14700 | 257 | 91.1
CC(c1nc2ccccc2c(=O)n1-c1ccccc1Cl)N(Cc1ccccc1)C(=O)Nc1cccc(Br)c1 (stereo not drawn) | > 10000 | > 159 | > 1250
CCN1CCN(CCN2C(=O)C3C(C(=O)Nc4ccc(C(C)C)cc4)C4C=CC3(O4)C2C(=O)NC2CCCCC2)CC1 (stereo not drawn) | > 100000 | 5820 | > 12500
CC(=O)N(C1=C(N(C)C)C(=O)c2ccccc2C1=O)c1cccc(Cl)c1 | 3180 | 64.9 | 27.3
O=C(Cn1c2ccccc2c(=O)c2cc([N+](=O)[O-])ccc21)Nc1cccc(Cl)c1 | > 10000 | > 1250 | > 880
Cc1ccn2c(NC(C)(C)CC(C)(C)C)c(-c3ccccc3OC(=O)c3ccc(F)cc3)nc2c1 | > 10000 | 8.7 | 897
CCCOC(=O)C1=C(C)NC2=C(C(=O)CC(c3ccc(OC)cc3)C2)C1c1ccccc1F (stereo not drawn) | > 100000 | 20.1 | 55
Cc1ccccc1OCCSc1nc2ccc(NC(=O)c3cccs3)cc2s1 | > 100000 | 1580 | 497
CCOc1cc(-c2nc3c(=O)n(C)c(=O)nc-3n(C)n2)ccc1OC(C)C | > 10000 | 29.3 | 333
CC[C@H](C)C[C@H]1CC[C@](O)([C@](C)(O)C(=O)N[C@@H]2C(=O)N3NCCC[C@@H]3C(=O)N(O)[C@@H](C)C(=O)NCC(=O)N3NCCC[C@H]3C(=O)N(O)[C@H](C)C(=O)O[C@H]2C(C)C)O[C@@H]1C | 465 | 567 | 438
CC(=O)c1cccc(CN2CCC(C(=O)Nc3ccc(-n4nc(C)cc4C)cc3)CC2)c1 | > 100000 | 1950 | 2160
Cn1cnc(S(=O)(=O)Nc2ccccc2C(=O)NCC2CC2)c1 | > 10000 | 82.1 | > 1470
COc1ccc2ccc(OC)c(C3C(C#N)=C(N)OC4=C3C(=O)CC(C)(C)C4)c2c1 (stereo not drawn) | > 100000 | 864 | 1450
O=C(Cc1ccccc1)NCc1nnc(SCC(=O)N2N=C(c3cccs3)CC2c2ccc(F)cc2)n1Cc1ccccc1 (stereo not drawn) | > 100000 | 984 | 8850
CCCCC(=O)N(C/C=C/c1ccccc1OC)CCN1CCN(C(=O)NC23CC4CC(CC(C4)C2)C3)CC1 | > 10000 | 313 | 1450
COc1cc2c(OC3OCC(OC)C(OC)C3O)c3c(c(-c4ccc5c(c4)OCO5)c2cc1OC)C(=O)OC3 (stereo not drawn) | > 10000 | 28.3 | 81.7
CCCCCCc1ccc(C(=O)N(C)CCCNc2ccnc3cc(Cl)ccc23)cc1 | > 10800 | 219 | 670
COc1ccc(-c2nc(-c3ccc4c(c3)-c3cc(-c5[nH]c(-c6ccc(OC)cc6)nc5-c5ccccc5)ccc3C4=O)c(-c3ccccc3)[nH]2)cc1 | 94500 | 3750 | 7300
CCCn1nc(NS(C)(=O)=O)c2cc3cccc(C)c3nc21 | > 100000 | 2020 | > 9100
Oc1ccc(Br)cc1C=NNc1nc2ccccc2[nH]1 | 54000 | 504 | 536

SMILES | CC50 [1] [nM] | EC50 (Plasmodium falciparum [2]) [nM] | EC50 (Plasmodium falciparum [3]) [nM]
CC(C)CN1C(=O)c2ccccc2C(C(=O)Nc2ccc(F)c(Cl)c2)C1c1cccs1 (stereo not drawn) | > 95200 | 120 | 121
O=C(N/C(=C/C=C\c1ccccc1)C(=O)N1CCOCC1)c1ccc(Br)cc1 | > 10000 | 401 | > 1300
CC(C)(C)c1ccc(C(=O)C[n+]2cc(-c3ccccc3)n3c2CCC3)cc1 | 43000 | 470 | 1140
O=C(Nc1ccc(-c2nc3cc(NC(=O)c4ccc(Cl)cc4)ccc3[nH]2)cc1)c1ccc(Cl)cc1 | 83800 | > 12500 | 993
CCCNC(=O)c1cc(NC(=O)c2cc(C(F)(F)F)cc(C(F)(F)F)c2)ccc1N1CCCCC1 | 10200 | > 816 | > 1560
OC(COc1ccc(OCC(O)CN2CCN(CCOc3ccccc3)CC2)cc1)CN1CCN(CCOc2ccccc2)CC1 (stereo not drawn) | > 100000 | 853 | > 11000
COCCN(CC(=O)Nc1cc(C(C)(C)C)nn1-c1ccc(C)cc1)C(=O)COCc1ccccc1 | > 10000 | > 1250 | > 818
CC(C)COc1nc(-c2ccccc2)n(S(=O)(=O)c2cccc3cccnc23)n1 | > 2160 | 4.56 | 42.3
COc1cc(NC(=O)Cn2ccc3ccc([N+](=O)[O-])cc32)cc(OC)c1OC | > 10000 | 319 | 439
Cc1c(C)n(Cc2ccc(F)cc2)c2ccc(C(=O)NCc3ccco3)cc12 | > 100000 | 399 | 78.2
Cc1ccc(Sc2c(C)nn(C(=O)c3cccnc3)c2C)cc1 | > 10000 | > 677 | 322
CN(Cc1ccccc1)c1cc(-c2ccccn2)nc(-c2ccccn2)n1 | > 10000 | 514 | 531
C/C(Cl)=C/Cc1c(C)nc2c(ccc3ccccc32)c1O | > 10000 | 1280 | 857
Cc1nc(N(C)c2ccc(C(C)C)cc2)c2c(C)c(C(=O)Nc3cc(C)on3)sc2n1 | > 100000 | 236 | 248
O=C(/C=C/c1ccccc1Cl)Nc1ccc(Oc2ccc3ccccc3c2Cl)c(Cl)c1 | > 10000 | > 1250 | > 958
O=c1c2c([nH]c3ccccc13)CCCCCCCCCC2 | > 100000 | 671 | 277
O=C(Nc1ccc(-c2nc3ccccc3[nH]2)cc1)c1ccc(-c2cccc([N+](=O)[O-])c2)o1 | > 100000 | 924 | 2240
CC(=O)N(C1=C(N2CCCC2)C(=O)c2ccccc2C1=O)c1ccc(I)cc1 | 47000 | 224 | 553
CC(C)CC(N)C(=O)NCCCNc1nsc2ccccc12 (stereo not drawn) | 15900 | > 12100 | 2820
CCOC(=O)C1=C(C)N=c2sc(=Cc3cc(Br)ccc3O)c(=O)n2C1c1ccccc1 (stereo not drawn) | > 100000 | 1400 | 5530
CCCc1nc2ccc(NC(=O)c3ccccc3F)cc2c(=O)n1Cc1ccc(-c2ccccc2)cc1 | > 100000 | 217 | 1080
Cc1cc2c(cc1S(=O)(=O)N1CCCCC1C)OCC(=O)N2 (stereo not drawn) | > 100000 | 505 | > 12500

SMILES | CC50 [1] [nM] | EC50 (Plasmodium falciparum [2]) [nM] | EC50 (Plasmodium falciparum [3]) [nM]
CCOc1ccc(-n2cc(-c3ccccc3)c3c(SCc4cc(C)ccc4C)ncnc32)cc1 | > 10000 | > 1250 | 2010
Fc1cccc(Nc2nc(NCC3CCCO3)c3ccccc3n2)c1 (stereo not drawn) | 9580 | 203 | 142
Cc1cc2nc3ccc(N(C)C)cc3[n+](-c3ccccc3)c2cc1N | > 10000 | 31.2 | 156
CN(CC(=O)NC(C)(C)C)S(=O)(=O)c1ccccc1 | > 10000 | > 1000 | > 1250
CC(C)Cc1ccc(/C=C/C(=O)NC2CC2)cc1 | > 10000 | > 1200 | 913
COc1ccc(-c2nc(CN3CCCCC3)ccc2O)cc1 | > 10000 | 30 | 131
CCNC(=O)C=Cc1ccc(C(C)(C)C)cc1 | > 100000 | 719 | 616
COc1ccc2[nH]cc(CCNC(=O)Oc3ccccc3)c2c1 | > 10000 | 604 | > 1290
OCC1CCCN1c1nccnc1-c1ccccc1Oc1ccccc1 (stereo not drawn) | > 10000 | > 1250 | > 868
CCC(CO)NCC(O)Cn1c2ccc(Cl)cc2c2cc(Cl)ccc21 (stereo not drawn) | 20100 | 40.6 | 368
OCCNc1nc(Nc2ccc(F)cc2)nc2ccccc12 | > 100000 | 749 | 223
CN1CCN(C(c2ccco2)c2sc3ncnn3c2O)CC1 (stereo not drawn) | > 10000 | 1080 | > 1250
Cc1cc(Nc2ccc([N+](=O)[O-])cc2O)nc2ccccc12 | 28000 | 144 | 357
O=C(NCCCCCCNC(=O)Nc1nc(-c2ccc(F)cc2)cs1)Nc1nc(-c2ccc(F)cc2)cs1 | 51600 | 5060 | 5970
CCOc1ccc(-c2c[n+](-c3ccccc3)c3n2CCS3)cc1 | > 100000 | 228 | 421
CO/C(=C\C(N)=O)C(C)C(/C=C/c1csc(-c2csc(C(C)/C=C/C=C/C(C)C)n2)n1)OC (stereo not drawn) | > 10000 | 84.6 | 1240
Cc1c(C(=O)N2CCN(c3cccc(Cl)c3)CC2)sc2ncnc(N(C)c3ccccc3)c12 | > 10000 | > 906 | > 723
CCCCc1ccc(C(=O)N(C)CCCNc2ccnc3cc(Cl)ccc23)cc1 | > 10000 | 41.6 | 427
O=C(CSc1ccc2nnc(-c3cccs3)n2n1)Nc1ccc2c(c1)OCCO2 | > 100000 | 573 | 447
COc1ccccc1CNC(=O)C1c2ccccc2C(=O)N2CCc3ccccc3C12 (stereo not drawn) | > 100000 | 2250 | 4900
O=C(NCCc1ccccc1)c1cnc(NCCC2=CCCCC2)nc1NCC1CCCCC1 | > 10000 | 395 | 436
O=C(NCCCCNc1ccnc2cc(Cl)ccc12)C1CCCC1 | > 10000 | 485 | 409
